{"source": "patent US9241968B2", "about": "“Nonapeptide with anti-tumour activity” (Lytix Biopharma AS, priority 2008, dated 2016)", "key": {"[1]": {"system": "panel of 37 human cancer cell lines", "assay": "In vitro cytotoxic activity, MTS assay, panel summary", "type": "cell-based", "details": "range stated in conclusions", "description": "2. Materials and Methods 2.1. Test Substances 2.1.1. Test Substances • Test substances, LTX-302, LTX-313, LTX-315, LTX-320 and LTX-329 (see Table 1) provided in powder form. 2.1.2. Positive Control • Triton X-100 was used as positive control, supplied by Oncodesign (Dijon, France) from Sigma (Saint Quentin Fallavier, France). 2.1.3. Drug Vehicle and Storage Conditions • Compounds were stored at 4° C. Powder was first dissolved in serum free culture medium (RPMI 1640, Lonza, Verviers, Belgium) and further diluted using serum-free culture medium to reach appropriate dilutions. Stock solution was not stored and was prepared fresh the day of experiment. • 1% (final concentration) Triton X-100 was obtained by dilution using culture medium. 2.2. Tumor Cell Lines and Culture Conditions 2.2.1. Tumor Cell Lines\nTumor cells were grown as adherent monolayers or as suspensions at 37° C. in a humidified atmosphere (5% CO2, 95% air). The culture medium was RPMI 1640 containing 2 mM L-glutamine (Lonza, Belgium) and supplemented with 10% fetal bovine serum (FBS, Lonza). For experimental use, the adherent cells were detached from the culture flask by a 5-minute treatment with trypsin-versene (Lonza), diluted in Hanks' medium without calcium or magnesium (Lonza) and neutralized by addition of complete culture medium. Cells were counted in a hemocytometer and their viability was assessed by 0.25% trypan blue exclusion.\nTumor cells were plated in 96-well flat-bottom microtitration plates (Nunc, Dutscher, Brumath, France) and incubated at 37° C. for 24 hours before treatment in 190 μl of drug-free culture medium supplemented or not with 10% FBS for adherent or suspension growing cell lines, respectively.\nThe adherent cell lines were washed once with 200 μl FBS-free culture medium before treatment. […]\nThree (3) independent experiments were performed, each concentration being tested in quadruplicate. […] At the end of treatments, the cytotoxic activity was evaluated by a MTS assay (see §3.3). […]\nAt the end of the cells treatment, 40 μl of a 0.22 μm filtered freshly combined solution of MTS (20 ml at 2 mg/ml, Ref G1111, Batch 235897, Exp March/2009, Promega, Charbonnières, France) and PMS (1 ml at 0.92 mg/ml, Ref P9625, Batch 065K0961, Sigma) in Dulbecco's Phosphate Buffered Saline (DPBS, Ref 17-513Q, Batch 6MB0152, Cambrex), were added in each well. […] Absorbency (OD) were measured at 490 nm in each well using VICTOR^3™ 1420 multilabeled counter (Wallac, PerkinElmer, Courtaboeuf, France). […]\nThe dose-response curves were plotted using XLFit 3 (IDBS, United Kingdom). The IC50 determination values were calculated using the XLFit 3 software from semi-log curves. […]"}, "[2]": {"system": "panel of 10 lymphoma cell lines", "assay": "In vitro cytotoxic activity on lymphoma cells, MTS assay, panel summary", "type": "cell-based, human", "details": "range stated in conclusions", "source_text": "• To determine the concentrations of five novel compounds to obtain a 50% inhibition of proliferation (IC50) against a panel of 10 lymphoma cell lines. 2. Materials and Methods 2.1. Test Substances 2.1.1. Test Substances • Test substances, LTX-302, LTX-313, LTX-315, LTX-320 and LTX-329 (see Table 1) provided in powder form. 2.1.2. Positive Control • Triton X-100 was used as positive control and supplied by Oncodesign (Dijon, France) from Sigma (Saint Quentin Fallavier, France). 2.1.3. Drug vehicle and storage condition • Compounds were stored at 4° C. Powder was first dissolved in serum free culture medium (RPMI 1640, Lonza, Verviers, Belgium) and further diluted using serum-free culture medium to reach appropriate dilutions. Stock solution was not stored and was prepared fresh the day of experiment. • 1% (final concentration) Triton X-100 was obtained by dilution using culture medium. 2.2. Tumor Cell Lines and Culture Conditions 2.2.1. Tumor Cell Lines\nTumor cells were grown as suspensions at 37° C. in a humidified atmosphere (5% CO2, 95% air). The culture medium for each cell line is described in the Table 3 below. For experimental use, cells were counted in a hemocytometer and their viability was assessed by 0.25% trypan blue exclusion.\nTumor cells were plated in 96-well flat-bottom microtitration plates (Nunc, Dutscher, Brumath, France) and incubated at 37° C. for 24 hours before treatment in 190 μl of drug-free and FBS-free culture medium.\nTumor cells were incubated for 4 hours with 10 concentrations of compounds in ¼ dilution step with a top dose of 400 μM (range 4×10^−4 to […]), with 1% (final concentration) Triton X-100 as positive control and FBS-free culture medium as negative control. The cells (190 μl) were incubated in a 200 μl final volume of FBS-free culture medium containing test substances at 37° C. under 5% CO2.\nThree independent experiments were performed, each concentration being issued from quadruplicate. Control cells were treated with vehicle alone. At the end of treatments, the cytotoxic activity was evaluated by a MTS assay (see §3.3 below). […]\nAt the end of the cells treatment, 40 μl of a 0.22 μm filtered freshly combined solution of MTS (20 ml at 2 mg/ml, Ref G1111, Batch 235897, Exp March/2009, Promega, Charbonnières, France) and PMS (1 ml at 0.92 mg/ml, Ref P9625, Batch 065K0961, Sigma) in Dulbecco's Phosphate Buffered Saline (DPBS, Ref 17-513Q, Batch 6MB0152, Cambrex), were added in each well. […] Absorbency (OD) were measured at 490 nm in each well using VICTOR^3™ 1420 multilabeled counter (Wallac, PerkinElmer, Courtaboeuf, France).\n4.1. IC50 Data was Determined as in Example 1"}, "[3]": {"system": "murine A20 B-cell lymphoma", "assay": "Intratumoral treatment of murine A20 B-cell lymphoma tumours in mice", "type": "in vivo", "details": "Group 1 (1 mg) compared to the other two groups", "description": "The aim of the study was to investigate the effect of LTX-315 at different dose levels on a murine A20 B-cell lymphoma in mice.\nThe administration took place by intratumoral injection of LTX-315 dissolved in sterile saline.\nFemale mice were inoculated subcutaneously in the abdomen with 5 million murine A20 cells (ATCC, LGC Promochem AB, Middlesex, England) in a volume of 50 μl. The mice were divided into four groups (see Table 5 below for details). The intratumoral treatment was initiated when the tumours had reached the desired size of approximately 5 mm in diameter (minimum of 20 mm^2).\nThree dose levels of LTX-315, 1 mg (Group 1), 0.5 mg (Group 2) and 0.25 mg (Group 3) per injection, were investigated. The volume was 50 μl for all injections. LTX-315 was dissolved in sterile 0.9% NaCl water solution. This vehicle was used as control (Group 4). All four groups received three injections.\nA caliper was used for tumour size measurements and weighing and physical examination were used as health control.\nAnimals: Specific pathogen-free female Balb/c mice, 6-8 weeks old, supplied form Harlan (England, UK)"}}, "note": "Non-standard residues stand in square brackets, D forms with d. Residues, ends and D or L forms follow the SMILES beside them. Bip = N[C@@H](Cc1ccc(-c2ccccc2)cc1)C(=O)O; dBip = N[C@H](Cc1ccc(-c2ccccc2)cc1)C(=O)O; Dip = N[C@H](C(=O)O)C(c1ccccc1)c1ccccc1", "data": [{"smiles": "NCCCC[C@H](NC(=O)[C@H](Cc1c[nH]c2ccccc12)NC(=O)[C@H](CCCCN)NC(=O)[C@H](CCCCN)NC(=O)[C@@H](NC(=O)[C@H](Cc1c[nH]c2ccccc12)NC(=O)[C@H](CCCCN)NC(=O)[C@H](CCCCN)NC(=O)[C@@H](N)Cc1c[nH]c2ccccc12)C(c1ccccc1)c1ccccc1)C(N)=O", "note": "[LTX-302, W-K-K-W-Dip-K-K-W-K-NH2] (H-WKKW[Dip]KKWK-NH2; N-terminus assumed)", "values": [{"measurement": "IC50 values against 37 human cancer cell lines (cytolytic activity), in words", "setting": "[1]", "value": "micromolar to ten micromolar range"}, {"measurement": "IC50 values against the 10 human lymphoma cell lines (cytolytic activity), in words", "setting": "[2]", "value": "micromolar range"}]}, {"smiles": "NCCCC[C@H](NC(=O)[C@H](Cc1c[nH]c2ccccc12)NC(=O)[C@H](Cc1c[nH]c2ccccc12)NC(=O)[C@H](CCCCN)NC(=O)[C@H](CCCCN)NC(=O)[C@H](Cc1c[nH]c2ccccc12)NC(=O)[C@H](Cc1ccc(-c2ccccc2)cc1)NC(=O)[C@H](CCCCN)NC(=O)[C@@H](N)CCCCN)C(N)=O", "note": "[LTX-313, K-K-Bip-W-K-K-W-W-K-NH2] (H-KK[Bip]WKKWWK-NH2; N-terminus assumed)", "values": [{"measurement": "IC50 values against 37 human cancer cell lines (cytolytic activity), in words", "setting": "[1]", "value": "micromolar to ten micromolar range"}, {"measurement": "IC50 values against the 10 human lymphoma cell lines (cytolytic activity), in words", "setting": "[2]", "value": "micromolar range"}]}, {"smiles": "NCCCC[C@H](NC(=O)[C@@H](NC(=O)[C@H](Cc1c[nH]c2ccccc12)NC(=O)[C@H](CCCCN)NC(=O)[C@H](CCCCN)NC(=O)[C@H](Cc1c[nH]c2ccccc12)NC(=O)[C@H](Cc1c[nH]c2ccccc12)NC(=O)[C@H](CCCCN)NC(=O)[C@@H](N)CCCCN)C(c1ccccc1)c1ccccc1)C(N)=O", "note": "[LTX-315, K-K-W-W-K-K-W-Dip-K-NH2] (H-KKWWKKW[Dip]K-NH2)", "values": [{"measurement": "necrosis and wound formation", "setting": "[3]", "value": "stronger necrosis and more wound formation"}]}, {"smiles": "N=C(N)NCCC[C@H](NC(=O)[C@H](Cc1c[nH]c2ccccc12)NC(=O)[C@H](Cc1c[nH]c2ccccc12)NC(=O)[C@H](CCCNC(=N)N)NC(=O)[C@H](CCCNC(=N)N)NC(=O)[C@@H](NC(=O)[C@H](Cc1c[nH]c2ccccc12)NC(=O)[C@H](CCCNC(=N)N)NC(=O)[C@@H](N)CCCNC(=N)N)C(c1ccccc1)c1ccccc1)C(N)=O", "note": "[LTX-320, R-R-W-Dip-R-R-W-W-R-NH2] (H-RRW[Dip]RRWWR-NH2; N-terminus assumed)", "values": [{"measurement": "IC50 values against 37 human cancer cell lines (cytolytic activity), in words", "setting": "[1]", "value": "micromolar to ten micromolar range"}, {"measurement": "IC50 values against the 10 human lymphoma cell lines (cytolytic activity), in words", "setting": "[2]", "value": "micromolar range"}]}, {"smiles": "NCCCC[C@@H](N)C(=O)N[C@H](CCCCN)C(=O)N[C@H](Cc1ccc(-c2ccccc2)cc1)C(=O)N[C@H](Cc1c[nH]c2ccccc12)C(=O)N[C@H](CCCCN)C(=O)N[C@H](CCCCN)C(=O)N[C@H](Cc1c[nH]c2ccccc12)C(=O)N[C@H](Cc1c[nH]c2ccccc12)C(=O)N[C@H](CCCCN)C(N)=O", "note": "[LTX-329, k-k-bip-w-k-k-w-w-k-NH2] (H-[dK][dK][dBip][dW][dK][dK][dW][dW][dK]-NH2; N-terminus assumed)", "values": [{"measurement": "IC50 values against 37 human cancer cell lines (cytolytic activity), in words", "setting": "[1]", "value": "micromolar to ten micromolar range"}, {"measurement": "IC50 values against the 10 human lymphoma cell lines (cytolytic activity), in words", "setting": "[2]", "value": "micromolar range"}]}]}
